According to patent US20130035257A1, “MICROFLUIDIC ARRAYS AND METHODS FOR THEIR PREPARATION AND USE” (UNIVERSITY OF BRITISH COLUMBIA, priority 2011, published 2013):

Key:
[1] = tested on: human MCF-7 breast tumor cells; conditions: MCF-7 cells in alginate-poly-L-lysine-alginate microcapsules, MTT assay; cited from earlier work
[2] = tested on: LCC6/Her2 breast tumor cells; assay: in vitro; format: cell-based
Method: (§1) Doxorubicin (Dox) is an anthracycline molecule that intercalates in DNA and inhibits topoisomerase II. As an anticancer agent, the drug inhibits RNA and DNA synthesis. During on-chip drug testing, the Dox solution was prepared with 0.2% dimethylsulfoxide (DMSO) and DMEM culture medium. After visual confirmation of spheroid formation at four days, the drug-free culture media was replaced with 400, 800, 1200, and 1600 nM Dox solutions. The drug solution was continuously perfused through the device at a rate of 0.25 μl min^−1 for two days. DMSO controls, in which the corresponding amount of DMSO in culture medium with no drug, were also carried out. Toxicity was examined after 48 h of drug dosing by quantifying cell viability.
(§2) Cell viability was indicated with live/dead calcein AM/ethidium homodimer-1 stains (Invitrogen), which were applied through pressure-driven flow control to the cells while they were entrapped in alginate in the microdevice. […]
(§3) All stained samples were imaged using fluorescence microscopy. […] The number of living cells NG was calculated by counting the number of pixels in the green (living cells) channel in the confocal images and normalizing for the size of one cell. The number of dead cells NR was similarly calculated using the red pixels. […]
(§4) The survival rate was calculated as NG/(NG+NR). The proliferation rate is calculated as (N4−N1)/N1 before drug treatment, and as (N6−N4)/N4 after drug treatment, where Nx is the number of cells on the xth day.
(§5) Images from confocal microscopy were used to determine cell survival rate and proliferation inside the three dimensional multicellular aggregates after exposure to different doxorubicin concentrations. […] Doxorubicin was the perfused with (a) 0, (b) 400, (c) 800, (d) 1200, and (e) 1600 nM doxorubicin for two days, and cell viability was measured at the end of that period after staining with a live/dead viability kit and confocal imaging. […] The number of living cells NG was calculated by counting the number of pixels (living cells) channel in the confocal image and normalizing for the size of one cell. […]

[3] = at 25° C.; cited from earlier work
[4] = tested on: LCC6/Her2 breast tumor cells; assay: Cell proliferation rate of tumor spheroids on-chip from confocal cell counts; format: cell-based, human; conditions: 1600 nM Dox exposure, 2 days
Method: as §1
as §3, with “microscopy. The imaging system consisted of a fluorescent microscope (Nikon TE2000U) and a cooled, color CCD camera (Retiga).” for “microscopy.”
The survival rate was calculated as NG/(NG+NR). The proliferation rate is calculated as (N4−N1)/N1 before drug treatment, and as (N6−N4)/N4 after drug treatment, where Nx is the number of cells on the xth day. […]

[5] = tested on: A549 human lung cells; conditions: cited from earlier work
[6] = in vitro; format: cell-based; conditions: human
Method: as §1, §2, §3, §4, §5

[7] = tested on: EMT-6 mammary sarcoma cells; conditions: EMT-6 spheroids created in a spinner flask, different exposure doses; cited from earlier work
[8] = tested on: LCC6/Her2 cells; assay: MTS assay of cell activity, cells cultured within alginate gel beads; format: cell-based, human; conditions: 48 h treatment with 800 nM doxorubicin
Method: as §1
For LCC6/Her2 cells cultured within alginate gel beads 100, cell activity as measured using the standard MTS assay was 35%, while cell viability as measured using the Live/Dead stains was 83%, in both cases after 48 h treatment with 800 nM doxorubicin. […] Thus, the absolute number of surviving cells, in addition to the percentage of living or dead cells, may be an important parameter in drug screening. This can be obtained by processing the data from image-based high-throughput screening systems.

SMILES: O=c1[nH]cc(F)c(=O)[nH]1 [5-fluorouracil]
- inhibition rates in multicellular spheroids versus monolayers [1]: lower inhibition rates in multicellular spheroids than in monolayers

SMILES: CCCCCCCCCCCCCCCC [Hexadecane, n-hexadecane]
- additional toxicity from droplet formation solvent (survival rate, bead versus microchannel) [2]: did not indicate any additional toxicity effects
- solubility in the aqueous phase [3]: 9.0×10^−8 g/100 g water

SMILES: COc1cccc2c1C(=O)c1c(O)c3c(c(O)c1C2=O)C[C@@](O)(C(=O)CO)C[C@@H]3O[C@H]1C[C@H](N)[C@H](O)[C@H](C)O1 [doxorubicin, Doxorubicin]
- proliferation rate change (FIG. 10) [4]: marked proliferation decrease
- multicellular resistance index, ratio [IC50, spheroid/IC50, monolayer] [5]: 35
- cytotoxicity at 48 h, 1600 nM [6]: 20%
- viability at 48 h, 800 nM [6]: 83%
- resistance of spheroids versus monolayer cells [7]: higher resistance
- cell activity as measured using the standard MTS assay [8]: 35%
- inhibition rates in multicellular spheroids versus monolayers [1]: lower inhibition rates in multicellular spheroids than in monolayers

SMILES: CO[C@@]12[C@H](COC(N)=O)C3=C(C(=O)C(C)=C(N)C3=O)N1C[C@@H]1N[C@@H]12 [mitomycin C]
- inhibition rates in multicellular spheroids versus monolayers [1]: lower inhibition rates in multicellular spheroids than in monolayers

SMILES: CC[C@]1(O)C[C@@H]2CN(CCc3c([nH]c4ccccc34)[C@@](C(=O)OC)(c3cc4c(cc3OC)N(C)[C@H]3[C@@](O)(C(=O)OC)[C@H](OC(C)=O)[C@]5(CC)C=CCN6CC[C@]43[C@@H]65)C2)C1 [vinblastine]
- multicellular resistance index, ratio [IC50, spheroid/IC50, monolayer] [5]: 6625
